Earlier results on 1 molecule are cited in US20140023728A1, “Iodine Liquid Soap, Dispenser and Method” (priority 2012, published 2014).

Like-named read-outs stand apart in the source and are kept apart here.

On to `II` [Elemental iodine, iodine], for which the “volume of water in which one gram dissolves” value (one gram in water at 20 degrees Celsius) is 3450 mL and the “volume of water in which one gram dissolves” value (one gram in water at 50 degrees Celsius) is 1280 mL.
